Measured values reported in patent publication US11066443B2 (Hoffmann-La Roche Inc., priority 2017, dated 2021).
≈ marks a conversion by molar mass, not a printed value.

Legend:
P. aeruginosa NCTC11454 = test: Antimicrobial susceptibility testing: 50% growth inhibitory concentration (IC50) determination; type: cell-based; settings: Pseudomonas aeruginosa, Iso-Sensitest broth, OD 600 nm every 20 minutes over 16h, growth inhibition during logarithmic growth
Procedure, shortened: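 Twofold dilutions (e.g. 50–0.097 μM final) in Iso-Sensitest broth were inoculated with P. aeruginosa NCTC11454 at ~5×10^5 CFU/mL and incubated at 35±2 °C. OD600 was read every 20 min over 16 h. IC50 was derived from growth inhibition in the logarithmic phase.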

P. aeruginosa ATCC27853 = test: Antimicrobial susceptibility testing: microbroth minimum inhibitory concentration (MIC) determination; type: cell-based; settings: Pseudomonas aeruginosa, CLSI microbroth dilution in CAMHB, read after 20 hours, lowest concentration inhibiting >=80% of growth
Method: The in vitro antimicrobial activity of the compounds was determined through microbroth minimum inhibitory concentration (MIC) methodology performed according to the Clinical and Laboratory Standard Institute guidelines (CLSI—M07-A9 Jan. 2012. Methods for Dilution Antimicrobial Susceptibility Tests for Bacteria That Grow Aerobically; Approved Standard—Ninth Edition, Clinical and Laboratory Standards Institue, Wayne/PA, US and the CLSI—M100-S24 Jan. 2014. Performance Standards for Antimicrobial Susceptibility Testing; Approved Standard—Fourth Informational Supplement, Clinical and Laboratory Standards Institue, Wayne/PA, US).
The compound stock solution was freshly prepared at 10× the required top concentration for the MIC determination, i.e. at 1280 mg/L, by reconstitution of the dry compound in 50:50 water:DMSO.
Polystyrene non-treated 96 wells microtiter plates were used for preparing panel containing compound serial twofold diluted at two times the final testing concentration (e.g. range from 64 to 0.06 μg/ml) in cation adjusted Mueller Hinton broth medium (CAMHB).
Inoculum was prepared by the “direct colony suspension method”. Colonies of P. aeruginosa ATCC27853 or clinical isolates were suspended in saline solution and adjusted to 0.5 McFarland, diluted 100 times in CAMHB broth and 50 μl added to each well (final concentration of cells ˜5×10^(5) CFU/ml and Final volume/well of 100 μl). Microtiter plates were sealed and incubated at 35±2° C.
MICs values were read after 20 hours of incubation and recorded as the lowest concentration of the antimicrobial that inhibits more or equal to 80% of growth of the organism as detected by the unaided eye and using a microtiter plate optical density reader (OD 600 nm).
Table 1 provides the minimum inhibitory concentration (MIC) in microgram per milliliter of the compounds of present invention obtained against the P. aeruginosa ATCC27853 (Table 1).

| SMILES | IC50 (P. aeruginosa NCTC11454) [µM] | MIC (P. aeruginosa ATCC27853) [µg/mL] |
| --- | --- | --- |
| CN1C(=O)[C@H](CCCCN)NC(=O)[C@H](CCCN)NCc2ccccc2Sc2c(Cl)cc(-c3cn(C)cn3)cc2CNC(=O)[C@@H]1Cc1c[nH]c2ccccc12 [Example 37, (12S,15S,18S)-15-(4-Amino-butyl)-18-(3-amino-propyl)-4-chloro-12-(1H-indol-3-ylmethyl)-13-methyl-6-(1-methyl-1H-imidazol-4-yl)-2-thia-10,13,16,19-tetraaza-tricyclo[19.4.0.0*3,8*]pentacosa-1(25),3,5,7,21,23-hexaene-11,14,17-trione] | 95.7 | 32 (≈ 40.8 µM) |
| CN1C(=O)[C@H](CCCCN)NC(=O)[C@H](CCCN)NCc2ccccc2Sc2c(cc(-c3ccccc3)cc2C(F)(F)F)CNC(=O)[C@@H]1Cc1c[nH]c2ccccc12 [Example 28, (12S,15S,18S)-15-(4-Amino-butyl)-18-(3-amino-propyl)-12-(1H-indol-3-ylmethyl)-13-methyl-6-phenyl-4-trifluoromethyl-2-thia-10,13,16,19-tetraaza-tricyclo[19.4.0.0*3,8*]pentacosa-1(25),3,5,7,21,23-hexaene-11,14,17-trione] | 8.8 | 8 (≈ 9.83 µM) |
